According to patent US8324245B2, “Quinoline derivative and quinazoline derivative inhibiting self-phosphorylation of hepatocytus proliferator receptor, and medicinal composition containing the same” (Kyowa Hakko Kirin Co., Ltd., priority 2001, dated 2012):

Molecular target: T1, met (HGF receptor) in human gastric cancer cells MKN45 (Homo sapiens, UniProt P08581)
T1 construct: endogenous in cells; host or cells: MKN45 human gastric cancer cells
Experiment: Inhibitory activity against met-autophosphorylation using ELISA method (2), MKN45 cells, HGF-independent
Format: cell-based
Protocol: Cells were cultured with RPMI medium containing 0.1% fetal calf serum in 96-well flat-bottom plate in an amount of 3×10^4 per well, and were incubated at 37° C. overnight. The medium was then replaced by a fresh RPMI medium containing 0.1% fetal calf serum. A solution of the test compound in dimethyl sulfoxide was added to each well, and the incuvation was continued at 37° C. for additional one hr. The medium was removed, the cells were washed with phosphate buffered saline (pH 7.4), and 50 μl of a lysis buffer (20 mM HEPES (pH 7.4), 150 mM NaCl, 0.2% Triton X-100, 10% glycerol, 5 mM sodium orthovanadylate, 5 mM disodium ethylenediaminetetraacetate, and 2 mM Na4P2O7) was then added thereto. The mixture was shaken at 4° C. for 2 hr to prepare a cell extract.
Separately, phosphate buffered saline (50 μl, pH 7.4) containing 5 μg/ml of anti-phospho-tyrosine antibody (PY20; purchased from Transduction Laboratories) was added to a microplate for ELISA (Maxisorp; purchased from NUNC), followed by gentle agitation at 4° C. overnight to coat the surface of the wells with the antibody. After washing of the plate, 300 μl of a blocking solution was added, followed by gentle agitation at room temperature for 2 hr to perform blocking. After washing, the whole quantity of the cell extract was transferred to the wells, and the plate was then allowed to stand at 4° C. overnight. After washing, an anti-HGF receptor antibody (h-Met (C-12), purchased from Santa Cruz Biotechnology) was allowed to react at room temperature for one hr, and, after washing, a peroxidase-labeled anti-rabbit Ig antibody (purchased from Amersham) was allowed to react at room temperature for one hr. After washing, a chromophoric substrate for peroxidase (purchased from Sumitomo Bakelite Co., Ltd.) was added thereto to initiate a reaction. After a suitable level of color development, a reaction termination solution was added to stop the reaction, and the absorbance at 450 nm was measured with a microplate reader.

T1 sequence (P08581 25-1390): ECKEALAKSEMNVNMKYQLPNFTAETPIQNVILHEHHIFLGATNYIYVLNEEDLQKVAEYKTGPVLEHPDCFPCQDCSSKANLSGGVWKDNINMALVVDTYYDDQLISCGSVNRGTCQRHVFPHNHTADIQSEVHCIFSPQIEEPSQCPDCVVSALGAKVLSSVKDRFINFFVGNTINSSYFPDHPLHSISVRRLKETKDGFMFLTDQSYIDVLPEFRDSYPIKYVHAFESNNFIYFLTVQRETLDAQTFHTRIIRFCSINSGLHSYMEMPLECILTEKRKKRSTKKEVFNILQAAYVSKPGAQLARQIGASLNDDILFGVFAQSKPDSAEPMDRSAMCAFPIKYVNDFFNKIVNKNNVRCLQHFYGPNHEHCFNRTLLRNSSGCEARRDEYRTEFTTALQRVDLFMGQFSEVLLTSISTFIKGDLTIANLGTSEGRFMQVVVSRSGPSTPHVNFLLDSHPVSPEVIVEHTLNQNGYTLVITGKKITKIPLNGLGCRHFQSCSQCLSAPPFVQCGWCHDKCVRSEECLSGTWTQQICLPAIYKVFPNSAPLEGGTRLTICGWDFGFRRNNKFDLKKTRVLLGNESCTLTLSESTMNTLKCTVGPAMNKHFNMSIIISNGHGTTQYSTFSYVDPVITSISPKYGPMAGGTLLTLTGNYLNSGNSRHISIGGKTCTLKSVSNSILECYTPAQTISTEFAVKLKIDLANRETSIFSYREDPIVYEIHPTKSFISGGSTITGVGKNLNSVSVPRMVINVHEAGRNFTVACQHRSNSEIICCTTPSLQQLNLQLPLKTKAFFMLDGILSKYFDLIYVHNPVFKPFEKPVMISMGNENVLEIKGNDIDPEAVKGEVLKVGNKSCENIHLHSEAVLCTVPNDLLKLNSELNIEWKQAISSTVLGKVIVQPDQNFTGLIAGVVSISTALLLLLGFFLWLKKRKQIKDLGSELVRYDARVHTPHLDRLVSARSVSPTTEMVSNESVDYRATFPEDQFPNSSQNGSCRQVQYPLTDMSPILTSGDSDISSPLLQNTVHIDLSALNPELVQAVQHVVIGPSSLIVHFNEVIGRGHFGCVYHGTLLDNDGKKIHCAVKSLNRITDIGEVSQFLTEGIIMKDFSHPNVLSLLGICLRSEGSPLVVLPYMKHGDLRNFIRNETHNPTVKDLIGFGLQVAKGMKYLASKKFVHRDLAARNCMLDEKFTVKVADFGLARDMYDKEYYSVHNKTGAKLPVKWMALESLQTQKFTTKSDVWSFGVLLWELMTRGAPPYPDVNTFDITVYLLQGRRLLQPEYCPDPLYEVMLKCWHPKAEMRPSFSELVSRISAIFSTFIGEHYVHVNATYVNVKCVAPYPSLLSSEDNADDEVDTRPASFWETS

Compound `COc1cc2c(Oc3ccc(NC(=O)NC(=O)Cc4ccc(F)cc4)c(F)c3)ccnc2cc1OCc1ccccc1` [Example 40, N-(4-{[7-(Benzyloxy)-6-methoxy-4-quinolyl]oxy}-2-fluorophenyl)-N′-[2-(4-fluorophenyl)acetyl]urea] has an IC50 of 242 nM.
With `COc1cc2c(Oc3ccc(NC(=O)NC(=O)Cc4ccc(F)cc4)cc3F)ccnc2cc1OCCCCN1CCOCC1` [Example 41, 1-{3-fluoro-4-[6-methoxy-7-(4-morpholin-4-yl-butoxy)quinolin-4-yloxy]phenyl}-3-[2-(4-fluorophenyl)-acetyl]urea] the IC50 was 281 nM.
Work on `COc1cc2c(Oc3ccc(NC(=O)NC(=O)Cc4ccc(F)cc4)cc3F)ccnc2cc1OCCCCN1CCCCC1` [Example 42, 1-{3-fluoro-4-[6-methoxy-7-(4-piperidine-1-yl-butoxy)quinolin-4-yloxy]phenyl}-3-[2-(4-fluorophenyl)-acetyl]urea] yielded an IC50 of 190 nM.
In the case of `COc1cc2c(Oc3ccc(NC(=O)NC(=O)Cc4ccc(F)cc4)cc3F)ccnc2cc1OCCCCN1CCN(C)CC1` [Example 43, 1-(3-fluoro-4-{6-methoxy-7-[4-(4-methyl-piperazin-1-yl)-butoxy]quinolin-4-yloxy}phenyl)-3-[2-(4-fluorophenyl)acetyl]urea], the IC50 is reported as 167 nM.
In the case of `COc1cc2c(Oc3ccc(NC(=O)NC(=O)Cc4ccc(F)cc4)c(F)c3)ccnc2cc1OCCCCN1CCOCC1` [Example 44, 1-{2-fluoro-4-[6-methoxy-7-(4-morpholin-4-yl-butoxy)quinolin-4-yloxy]phenyl}-3-[2-(4-fluorophenyl)-acetyl]urea], the IC50 is reported as 291 nM.
With `COc1cc2c(Oc3ccc(NC(=O)NC(=O)Cc4ccc(F)cc4)c(F)c3)ccnc2cc1OCCCCN1CCCCC1` [Example 45, 1-{2-fluoro-4-[6-methoxy-7-(4-piperidine-1-yl-butoxy)quinolin-4-yloxy]phenyl}-3-[2-(4-fluorophenyl)-acetyl]urea] the IC50 was 207 nM.
`COc1cc2c(Oc3ccc(NC(=O)NC(=O)Cc4ccc(F)cc4)cc3F)ccnc2cc1OCCCN1CCOCC1` [Example 46, 1-{3-fluoro-4-[6-methoxy-7-(3-morpholin-4-yl-propoxy)quinolin-4-yloxy]phenyl}-3-[2-(4-fluorophenyl)-acetyl]urea] was tested, and the IC50 was 229 nM.
`COc1cc2c(Oc3ccc(NC(=O)NC(=O)Cc4ccc(F)cc4)cc3F)ccnc2cc1OCCCN1CCCCC1` [Example 47, 1-{3-fluoro-4-[6-methoxy-7-(3-piperidin-1-yl-propoxy)quinolin-4-yloxy]phenyl}-3-[2-(4-fluorophenyl)-acetyl]urea] showed an IC50 of 215 nM.
Compound `COc1cc2c(Oc3ccc(NC(=O)NC(=O)Cc4ccc(F)cc4)cc3F)ccnc2cc1OCCN1CCCCC1` [Example 48, 1-{3-fluoro-4-[6-methoxy-7-(2-piperidin-1-yl-ethoxy)quinolin-4-yloxy]phenyl}-3-[2-(4-fluorophenyl)-acetyl]urea] has an IC50 of 224 nM.
With `COc1cc2c(Oc3ccc(NC(=O)NC(=O)Cc4ccc(F)cc4)cc3F)ccnc2cc1OCCN1CCN(C)CC1` [Example 49, 1-(3-fluoro-4-{6-methoxy-7-[2-(4-methyl-piperazin-1-yl)-ethoxy]quinolin-4-yloxy}phenyl)-3-[2-(4-fluorophenyl)acetyl]urea] the IC50 was 51.4 nM.
With `COc1cc2c(Oc3ccc(NC(=O)NC(=O)Cc4ccc(F)cc4)c(F)c3)ccnc2cc1OCCCN1CCCCC1` [Example 50, 1-{2-fluoro-4-[6-methoxy-7-(3-piperidin-1-yl-propoxy)quinolin-4-yloxy]phenyl}-3-[2-(4-fluorophenyl)-acetyl]urea] the IC50 was 235 nM.
In the case of `COc1cc2c(Oc3ccc(NC(=O)NC(=O)Cc4ccc(F)cc4)c(F)c3)ccnc2cc1OCCCN1CCN(C)CC1` [Example 51, 1-(2-fluoro-4-{6-methoxy-7-[3-(4-methyl-piperazin-1-yl)-propoxy]quinolin-4-yloxy}phenyl)-3-[2-(4-fluorophenyl)acetyl]urea], the IC50 is reported as 203 nM.
`COc1cc2c(Oc3ccc(NC(=O)NC(=O)Cc4ccccc4)cc3F)ccnc2cc1OCCCN1CCCCC1` [Example 52, 1-{3-fluoro-4-[6-methoxy-7-(3-piperidin-1-yl-propoxy)quinolin-4-yloxy]phenyl}-3-phenylacetylurea] gave an IC50 of 171 nM.
Work on `COc1cc2c(Oc3ccc(NC(=O)NC(=O)Cc4ccccc4)cc3F)ccnc2cc1OCCCN1CCN(C)CC1` [Example 53, 1-(3-fluoro-4-{6-methoxy-7-[3-(4-methyl-piperazin-1-yl)-propoxy]quinolin-4-yloxy}phenyl)-3-phenylacetylurea] yielded an IC50 of 37.4 nM.
For `COc1cc2c(Oc3ccc(NC(=O)NC(=O)Cc4ccccc4)cc3F)ccnc2cc1OCCN1CCOCC1` [Example 54, 1-{3-fluoro-4-[6-methoxy-7-(2-morpholin-4-yl-ethoxy)quinolin-4-yloxy]phenyl}-3-phenylacetylurea], the IC50 was 26.1 nM.
`COc1cc2c(Oc3ccc(NC(=O)NC(=O)Cc4ccc(F)cc4)cc3F)ccnc2cc1OCCN1CCOCC1` [Example 55, 1-{3-fluoro-4-[6-methoxy-7-(2-morpholin-4-yl-ethoxy)quinolin-4-yloxy]phenyl}-3-[2-(4-fluorophenyl)-acetyl]urea] was tested, and the IC50 was 245 nM.
Work on `COc1cc2nccc(Oc3ccc(NC(=S)NC(=O)c4cccc5ccccc45)cc3)c2cc1OC` [Example 56, 1-[4-(6,7-dimethoxyquinolin-4-yloxy)phenyl]-3-(naphthalene-1-carbonyl)thiourea] yielded an IC50 of 140 nM.
With `COc1cc2nccc(Oc3ccc(NC(=S)NC(=O)c4cccc5ccccc45)c(F)c3)c2cc1OC` [Example 57, 1-[4-(6,7-dimethoxyquinolin-4-yloxy)-2-fluoro-phenyl]-3-(naphthalene-1-carbonyl)thiourea] the IC50 was 132 nM.
`COc1cc2nccc(Oc3ccc(NC(=S)NC(=O)Cc4ccccc4)c(F)c3)c2cc1OC` [Example 58, 1-[4-(6,7-dimethoxyquinolin-4-yloxy)-2-fluorophenyl]-3-phenylacetylthiourea] was tested, and the IC50 was 27 nM.
`COc1cc2nccc(Oc3ccc(NC(=S)NC(=O)Cc4ccccc4Cl)cc3)c2cc1OC` [Example 59, 1-[2-(2-chlorophenyl)acetyl]-3-[4-(6,7-dimethoxyquinolin-4-yloxy)phenyl]thiourea] gave an IC50 of 193 nM.
In the case of `COc1cc2nccc(Oc3ccc(NC(=S)NC(=O)CC4CCCCC4)cc3)c2cc1OC` [Example 61, 1-(2-cyclohexylacetyl)-3-[4-(6,7-dimethoxy-quinolin-4-yloxy)phenyl]thiourea], the IC50 is reported as 113 nM.
Work on `CCOCCC(=O)NC(=S)Nc1ccc(Oc2ccnc3cc(OC)c(OC)cc23)cc1` [Example 62, 1-[4-(6,7-dimethoxyquinolin-4-yloxy)phenyl]-3-(3-ethoxypropionyl)thiourea] yielded an IC50 of 92 nM.
Compound `COc1cc2nccc(Oc3ccc(NC(=S)NC(=O)Cc4ccccc4)cc3Cl)c2cc1OC` [Example 63, 1-[3-chloro-4-(6,7-dimethoxyquinolin-4-yloxy)-phenyl]-3-phenylacetylthiourea] has an IC50 of 24.4 nM.
Compound `COc1cc2nccc(Oc3ccc(NC(=S)NC(=O)CCc4ccccc4C)cc3F)c2cc1OC` [Example 64, 1-[4-(6,7-dimethoxyquinolin-4-yloxy)-3-fluoro-phenyl]-3-(3-o-tolylpropionyl)thiourea] has an IC50 of 140 nM.
For `COc1cc2nccc(Oc3ccc(NC(=S)NC(=O)Cc4ccccc4)c(Cl)c3)c2cc1OC` [Example 65, 1-[2-chloro-4-(6,7-dimethoxyquinolin-4-yloxy)-phenyl]-3-phenylacetylthiourea], the IC50 was 66.3 nM.
`COc1cc2nccc(Oc3ccc(NC(=S)NC(=O)Cc4cccs4)cc3)c2cc1OC` [Example 66, 1-[4-(6,7-dimethoxyquinolin-4-yloxy)phenyl]-3-(2-thiophen-2-ylacetyl)thiourea] was tested, and the IC50 was 79.2 nM.
In the case of `COc1cc2nccc(Oc3ccc(NC(=S)NC(=O)Cc4ccccc4)cc3C)c2cc1OC` [Example 67, 1-[4-(6,7-dimethoxyquinolin-4-yloxy)-3-methyl-phenyl]-3-phenylacetylthiourea], the IC50 is reported as 19.7 nM.
In the case of `COc1cc2nccc(Oc3ccc(NC(=S)NC(=O)Cc4ccccc4)cc3OC)c2cc1OC` [Example 68, 1-[4-(6,7-dimethoxyquinolin-4-yloxy)-3-methoxyphenyl]-3-phenylacetylthiourea], the IC50 is reported as 194 nM.
Work on `COc1cc(Oc2ccnc3cc(OC)c(OC)cc23)ccc1NC(=S)NC(=O)Cc1ccccc1` [Example 69, 1-[4-(6,7-dimethoxyquinolin-4-yloxy)-2-methoxyphenyl]-3-phenylacetylthiourea] yielded an IC50 of 4.4 nM.
`COc1cc2nccc(Oc3c(Cl)cc(NC(=S)NC(=O)Cc4ccccc4)cc3Cl)c2cc1OC` [Example 70, 1-[3,5-dichloro-4-(6,7-dimethoxyquinolin-4-yloxy)phenyl]-3-phenylacetylthiourea] was tested, and the IC50 was 15.3 nM.
For `COc1cc2nccc(Oc3ccc(NC(=S)NC(=O)Cc4ccc(F)cc4)cc3)c2cc1OC` [Example 71, 1-[4-(6,7-dimethoxyquinolin-4-yloxy)phenyl]-3-[2-(4-fluorophenyl)acetyl]thiourea], the IC50 was 29.9 nM.
Work on `COc1cc2nccc(Oc3ccc(NC(=S)NC(=O)Cc4ccc(F)cc4)c(F)c3)c2cc1OC` [Example 72, 1-[4-(6,7-dimethoxyquinolin-4-yloxy)-2-fluoro-phenyl]-3-[2-(4-fluorophenyl)acetyl]thiourea] yielded an IC50 of 27.9 nM.
